Data taken from the supplement of paper PMC10307832.

Experiments:
Experiment in all cases: relative viability (nuclei count vs DMSO), 5 days (fraction); higher = more cells survive
[1] = compound: COC1=CC=C(C=C1)CN2C=CC3=C2C=C(C=C3)C(=O)NO + Nc1ncn([C@H]2C[C@H](O)[C@@H](CO)O2)c(=O)n1 [Decitabine] (partner 2 µM)
Outline: (§1)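 Lung cancer cell lines were pin-tool dosed in 1536-well plates on the day after seeding, with either a lone drug or a fixed anchor-drug dose plus five library-drug doses (not always all listed) in √10 steps. Nuclei were counted on 4× images after 5 days. Relative viability is the ratio of treated-well to vehicle-well nuclei counts, with each value a median of duplicate plates.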

[2] = compound: COC1=CC=C(C=C1)CN2C=CC3=C2C=C(C=C3)C(=O)NO + N=C(N)NC(=N)NCCc1ccccc1 [Phenformin] (partner 250 µM)
Outline: as §1

Veliparib + Linsitinib = compound: C[C@]1(c2nc3c(C(N)=O)cccc3[nH]2)CCCN1 [Veliparib] + C[C@]1(O)C[C@@H](c2nc(-c3ccc4ccc(-c5ccccc5)nc4c3)c3c(N)nccn32)C1 [Linsitinib] (partner 1 µM)
Outline: as §1

[3] = compound: COC1=CC=C(C=C1)CN2C=CC3=C2C=C(C=C3)C(=O)NO + CCNC(=O)c1noc(-c2cc(C(C)C)c(O)cc2O)c1-c1ccc(CN2CCOCC2)cc1 [Luminespib] (partner 0.01 µM)
Outline: as §1

Cell Line | relative viability ([1]; first compound 0.253 µM) | relative viability ([1]; first compound 0.8 µM) | relative viability ([1]; first compound 2.53 µM) | relative viability ([1]; first compound 8 µM) | relative viability ([2]; first compound 0.08 µM) | relative viability ([2]; first compound 0.8 µM) | relative viability ([2]; first compound 2.53 µM) | relative viability ([2]; first compound 8 µM) | relative viability (Veliparib + Linsitinib; first compound 0.06325 µM) | relative viability (Veliparib + Linsitinib; first compound 0.2 µM) | relative viability (Veliparib + Linsitinib; first compound 0.6325 µM) | relative viability (Veliparib + Linsitinib; first compound 2 µM) | relative viability ([3]; first compound 0.08 µM) | relative viability ([3]; first compound 0.8 µM) | relative viability ([3]; first compound 2.53 µM) | relative viability ([3]; first compound 8 µM) | relative viability ([1]; first compound 0.08 µM) | relative viability ([2]; first compound 0.253 µM) | relative viability (Veliparib + Linsitinib; first compound 0.02 µM) | relative viability ([3]; first compound 0.253 µM)
EPLC-272H | 0.407 | 0.385 | 0.457 | 0.378 | 0.265 | 0.329 | 0.318 | 0.333 | 1.11 | 1.18 | 1.08 | 1.24 | 0.262 | 0.333 | 0.4 | 0.235 | – | – | – | –
NCI-H647 | 0.401 | 0.434 | 0.426 | 0.405 | 0.371 | 0.443 | 0.474 | 0.404 | 1.01 | 0.989 | 1.02 | 1.09 | 0.23 | 0.226 | 0.185 | 0.111 | 0.509 | 0.525 | 1.09 | 0.216
NCI-H2347 | 0.691 | 0.681 | 0.61 | 0.577 | 0.382 | 0.415 | 0.525 | 0.368 | 0.831 | 0.912 | 0.896 | 0.947 | 0.361 | 0.396 | 0.552 | 0.501 | 0.612 | 0.357 | 0.999 | 0.383
NCI-H1792 | 0.619 | 0.479 | 0.469 | 0.458 | 0.455 | 0.29 | 0.19 | 0.129 | 0.422 | 0.535 | 0.494 | 0.543 | 0.37 | 0.529 | 0.35 | 0.414 | 0.523 | 0.358 | 0.59 | 0.638
A-427 | – | 0.554 | 0.584 | 0.5 | – | 0.357 | 0.314 | 0.235 | 1.05 | 1.04 | 1.03 | 1.14 | – | 0.956 | 0.835 | 0.847 | 0.263 | 0.344 | 1.21 | 1.03
NCI-H2009 | 0.352 | 0.37 | 0.36 | 0.365 | 0.489 | 0.482 | 0.501 | 0.43 | 1.17 | 1.16 | 1.14 | 1.22 | 1.04 | 1 | 1.02 | 0.933 | 0.331 | 0.483 | 1.27 | 1.04
NCI-H1993 | 0.599 | 0.526 | 0.675 | 0.613 | 0.512 | 0.445 | 0.477 | 0.457 | 0.683 | 0.738 | 0.7 | 0.726 | 0.57 | 1.09 | 0.826 | 0.845 | 0.602 | 0.571 | 0.7 | 0.812
NCI-H2087 | 0.295 | 0.288 | 0.319 | 0.192 | 0.396 | 0.442 | 0.404 | 0.374 | 0.903 | 1.02 | 0.898 | 0.999 | 0.131 | 0.193 | 0.208 | 0.132 | 0.25 | 0.448 | 1.01 | 0.165
LCLC-97TM1 | 0.224 | 0.236 | 0.225 | 0.181 | 0.176 | 0.441 | 0.46 | 0.353 | 0.187 | 0.194 | – | 0.25 | 0.412 | 0.801 | 0.803 | 0.724 | – | 0.399 | 0.185 | 0.797
HCC-827 | 0.271 | 0.356 | 0.287 | 0.308 | 0.427 | 0.386 | 0.417 | 0.394 | 0.899 | 0.816 | 0.949 | 0.939 | 0.537 | 0.461 | 0.51 | 0.652 | 0.292 | 0.382 | 0.96 | 0.58
COR-L 105 | 0.618 | 0.752 | 0.601 | 0.604 | 0.383 | 0.335 | 0.34 | 0.271 | 0.86 | 0.982 | 0.915 | 0.915 | 0.858 | 0.893 | 0.713 | 0.485 | 0.515 | 0.492 | 0.984 | 0.871
NCI-H1915 | 0.284 | 0.259 | 0.275 | 0.262 | 0.348 | 0.378 | 0.359 | 0.348 | 1.07 | 1.02 | 0.954 | 0.995 | 0.646 | 0.885 | 0.84 | 0.768 | 0.239 | 0.38 | 1.07 | 0.812
NCI-H650 | 0.306 | 0.359 | 0.3 | 0.296 | 0.468 | 0.488 | 0.458 | 0.399 | 0.716 | 0.864 | 0.875 | 0.448 | 0.816 | 0.774 | 0.745 | 0.574 | 0.298 | 0.45 | 0.766 | 0.758
HCC-44 | 0.992 | 0.974 | 0.988 | 0.881 | 0.166 | 0.185 | 0.228 | 0.16 | 0.5 | 0.636 | 0.622 | 0.694 | 0.908 | 1.01 | 0.936 | 0.837 | 0.943 | 0.231 | 0.665 | 1.05
PC-14 | 0.259 | 0.198 | 0.223 | 0.244 | – | 0.667 | 0.639 | 0.488 | 0.915 | 0.953 | 0.86 | 0.926 | – | 0.184 | 0.14 | 0.134 | 0.212 | 0.348 | 1.02 | –
RERF-LC-KJ | 0.675 | 0.645 | 0.738 | 0.599 | 0.362 | 0.484 | 0.408 | 0.347 | 0.787 | 0.823 | 0.837 | 0.818 | 1.24 | 1.17 | 1.26 | 1.08 | 0.74 | 0.412 | 0.894 | 1.35
LK-2 | 0.303 | 0.295 | 0.296 | 0.224 | – | 0.579 | 0.396 | 0.24 | 0.592 | 0.476 | 0.558 | 0.548 | – | 0.168 | 0.194 | 0.157 | – | 0.462 | 0.689 | 0.21
